Results published in US20240391862A1, “(1,4,5-TRISUBSTITUTED-1H-PYRAZOL-3-YL)OXY-2-ALKOXY ALKYL ACIDS AND THEIR DERIVATIVES, THEIR SALTS AND THEIR USE AS HERBICIDAL AGENTS” (Bayer AKtiengesellschaft, priority 2021, published 2024).

Columns and labels:
[1] = tested on: TRZAS; experiment: Post-emergence herbicidal effect and crop plant compatibility, greenhouse pot test; type: in vivo, Triticum aestivum; conditions: Triticum aestivum, 504 h, 20 g/ha, one-leaf stage, rated visually after about 3 weeks vs untreated controls, read-out: Post-emergence effect at 20 g/ha against TRZAS in %
Text: • ALOMY: Alopecurus myosuroides SETVI: Setaria viridis • AVEFA: Avena fatua POLCO: Fallopia convolvulus • AMARE: Amaranthus retroflexus ECHCG: Echinochloa crus-galli • LOLRJ: Lolium rigidum STEME: Stellaria media • VERPE: Veronica persica MATIN: Tripleurospermum inodorum • DIGSA: Digitaria sanguinalis ABUTH: Abutylon threophrasti • TRZAS: Triticum aestivum VIOTR: Viola tricolor • BRSNW: Brassica napus ZEAMX: Zea mays • PHBPU: Ipomoea purpurea GLXMA: Glycine max • ORYSA: Oryza sativa HORMU: Hordeum murinum
Seeds of monocotyledonous and dicotyledonous weeds and crop plants are placed in sandy loam in plastic or organic planting pots, covered with soil and cultivated in a greenhouse under controlled growth conditions. 2 to 3 weeks after sowing, the trial plants are treated at the one-leaf stage. The compounds of the invention, formulated in the form of wettable powders (WP) or as emulsion concentrates (EC), are then sprayed onto the green parts of the plants as aqueous suspension or emulsion with addition of 0.5% additive at a water application rate of 600 l/ha (converted). After the test plants have been kept in the greenhouse under optimum growth conditions for about 3 weeks, the activity of the preparations is rated visually in comparison to untreated controls. For example, 100% activity=the plants have died, 0% activity=like control plants.
Tables 20a to 38c below show the effects/crop compatibilities of selected compounds of the general formula (I) on various harmful plants at an application rate corresponding to 20 to 320 g/ha, which were obtained by the trial procedure specified above.

[2] = tested on: ABUTH; experiment: Post-emergence herbicidal effect, greenhouse pot test; type: in vivo, Abutilon theophrasti; conditions: Abutilon theophrasti, 504 h, visual rating about 3 weeks after treatment, read-out: Post-emergence effect against ABUTH
How it was run: (§1)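 Sandy loam pots, greenhouse. One-leaf stage (2–3 wk after sowing) foliar spray; WP/EC in water + 0.5% additive, 600 l/ha; 20–320 g/ha. Visual score ~3 wk, 0–100% vs untreated.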

[3] = tested on: ALOMY; experiment: as above; type: in vivo, Alopecurus myosuroides; conditions: Alopecurus myosuroides, 504 h, 320 g/ha, visual rating about 3 weeks after treatment, read-out: Post-emergence effect against ALOMY
How it was run: as §1

[4] = tested on: AMARE; experiment: as above; type: in vivo, Amaranthus retroflexus; conditions: Amaranthus retroflexus, 504 h, visual rating about 3 weeks after treatment, read-out: Post-emergence effect against AMARE
How it was run: as §1

[5] = tested on: AVEFA; experiment: as above; type: in vivo, Avena fatua; conditions: Avena fatua, 504 h, 320 g/ha, visual rating about 3 weeks after treatment, read-out: Post-emergence effect against AVEFA
How it was run: as §1

[6] = tested on: DIGSA; experiment: as above; type: in vivo, Digitaria sanguinalis; conditions: Digitaria sanguinalis, 504 h, visual rating about 3 weeks after treatment, read-out: Post-emergence effect against DIGSA
How it was run: as §1

[7] = tested on: ECHCG; experiment: as above; type: in vivo, Echinochloa crus-galli; conditions: Echinochloa crus-galli, 504 h, read-out: Post-emergence effect against ECHCG in %
How it was run: as §1

[8] = tested on: MATIN; experiment: as above; type: in vivo, Tripleurospermum inodorum; conditions: Tripleurospermum inodorum, 504 h, read-out: Post-emergence effect against MATIN in %
How it was run: as §1

[9] = tested on: PHBPU; experiment: as above; type: in vivo, Ipomoea purpurea; conditions: Ipomoea purpurea, 504 h, read-out: Post-emergence effect against PHBPU in %
How it was run: as §1

[10] = tested on: POLCO; experiment: as above; type: in vivo, Fallopia convolvulus; conditions: Fallopia convolvulus, 504 h, 320 g/ha, read-out: Post-emergence effect against POLCO in %
How it was run: as §1

[11] = tested on: SETVI; experiment: as above; type: in vivo, Setaria viridis; conditions: Setaria viridis, 504 h, read-out: Post-emergence effect against SETVI in %
How it was run: as §1

[12] = tested on: VERPE; experiment: as above; type: in vivo, Veronica persica; conditions: Veronica persica, 504 h, read-out: Post-emergence effect against VERPE in %
How it was run: as §1

[13] = tested on: VIOTR; experiment: as above; type: in vivo, Viola tricolor; conditions: Viola tricolor, 504 h, read-out: Post-emergence effect against VIOTR in %
How it was run: as §1

[14] = tested on: ZEAMX; experiment: Post-emergence herbicidal effect and crop plant compatibility, greenhouse pot test; type: in vivo, Zea mays; conditions: Zea mays, 504 h, one-leaf stage, rated visually after about 3 weeks vs untreated controls; for plant injury at 20 g/ha: read-out: Post-emergence effect at 20 g/ha against ZEAMX in %; for plant injury at 80 g/ha: read-out: Post-emergence effect at 80 g/ha against ZEAMX in %
How it was run: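 Greenhouse pot test: weeds and crops sown in sandy loam, sprayed post-emergence at one-leaf stage (2–3 weeks after sowing) with WP or EC formulations plus 0.5% additive at 600 l/ha water, rates 20–320 g/ha. Visual rating about 3 weeks later versus untreated controls (100% = dead, 0% = as control).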

COC(=O)C(OC)Oc1nn(-c2cccc(Cl)c2F)c(-c2cncc(F)c2)c1Cl (centres unmarked) [Example I-16, Methyl {[4-chloro-1-(3-chloro-2-fluorophenyl)-5-(5-fluoropyridin-3-yl)-1H-pyrazol-3-yl]oxy}(methoxy)acetate]
10%: percent crop injury (phytotoxicity) to wheat, post-emergence at 20 g/ha [1]
90%: pest or weed control at 80 g/ha ([2]; 80 g/ha) | pest or weed control at 320 g/ha ([2]; 320 g/ha) | pest or weed control at 320 g/ha [3] | pest or weed control at 320 g/ha [5] | pest or weed control at 320 g/ha [6] | pest or weed control at 80 g/ha ([7]; 80 g/ha) | pest or weed control at 320 g/ha [7] | pest or weed control at 320 g/ha [8] | pest or weed control at 80 g/ha ([9]; 80 g/ha) | pest or weed control at 320 g/ha [9] | pest or weed control at 320 g/ha [13]
80%: pest or weed control at 80 g/ha ([4]; 80 g/ha) | pest or weed control at 320 g/ha [4] | pest or weed control at 80 g/ha ([6]; 80 g/ha) | pest or weed control at 80 g/ha ([8]; 80 g/ha) | pest or weed control at 20 g/ha ([9]; 20 g/ha) | pest or weed control at 320 g/ha [10] | pest or weed control at 80 g/ha ([11]; 80 g/ha) | pest or weed control at 320 g/ha [11] | pest or weed control at 320 g/ha [12] | pest or weed control at 20 g/ha ([13]; 20 g/ha) | pest or weed control at 80 g/ha ([13]; 80 g/ha)

CCOC(=O)C(OC)Oc1nn(-c2ccccc2F)c(-c2ccc(F)nc2)c1Br (centres unmarked) [Example I-22]
20%: plant injury at 20 g/ha [14] | plant injury at 80 g/ha [14] | percent crop injury (phytotoxicity) to wheat, post-emergence at 20 g/ha [1]
80%: pest or weed control at 320 g/ha [5] | pest or weed control at 320 g/ha [6] | pest or weed control at 320 g/ha [13]
90%: pest or weed control at 320 g/ha [3] | pest or weed control at 320 g/ha [4] | pest or weed control at 320 g/ha [7] | pest or weed control at 320 g/ha [8] | pest or weed control at 320 g/ha [9] | pest or weed control at 320 g/ha [11] | pest or weed control at 80 g/ha ([12]; 80 g/ha) | pest or weed control at 320 g/ha [12]

COC(Oc1nn(-c2cnccn2)c(-c2ccc(F)nc2)c1Br)C(=O)O (centres unmarked) [Example I-43]
0%: plant injury at 20 g/ha [14] | plant injury at 80 g/ha [14] | percent crop injury (phytotoxicity) to wheat, post-emergence at 20 g/ha [1]

COC(Oc1nn(-c2ncccc2F)c(-c2ccc(F)nc2)c1Cl)C(=O)O (centres unmarked) [Example I-44]
0%: plant injury at 20 g/ha [14] | plant injury at 80 g/ha [14] | plant injury at 320 g/ha ([14]; 320 g/ha, read-out: Post-emergence effect at 320 g/ha against ZEAMX in %) | percent crop injury (phytotoxicity) to wheat, post-emergence at 20 g/ha [1]
